Reference: publication PMC6257762, “Isoquinolines from the Roots of Thalictrum flavum L. and Their Evaluation as Antiparasitic Compounds” (Molecules, 2010)
Where “and” joins values, the source holds several entries; their conditions need not be identical. Equal entries are not always repeated. Where two headings read alike, the source gives them in different places.

Assays:
[1] = system: Plasmodium falciparum FcB1 Colombia; test: In vitro P. falciparum culture antimalarial activity assay; type: cell-based
Procedure: 3.4. In vitro P. falciparum culture and activity assays
Antimalarial activity was evaluated on FcB1 Colombia strain of Plasmodium falciparum according to a previously described procedure.

[2] = system: MCR-5 cells; test: Cytotoxicity towards MCR-5 (MRC5) cells; type: cell-based
Procedure: (§1) 3.3. Evaluations of cytotoxicity towards MCR-5 and KB cells
(§2) Cytotoxicities were evaluated at the ICSN-CNRS (Gif sur Yvette, France) on MRC5 and KB cells, in DMSO, at 10 and 1 µg/mL according to the procedure described by Moret et al..

[3] = system: Leishmania major; test: In vitro leishmanicidal activity, promastigote susceptibility (Uptiblue micromethod); type: cell-based; details: promastigotes, MHOM/Il/81/BNI, 96 h at 26 °C
Procedure: 3.5. In vitro leishmanicidal activity
Leishmania major (MHOM/Il/81/BNI) was cultivated at 26 °C in a Schneider’s insect medium (Sigma, St Quentin Fallavier, France) supplemented with 15% foetal bovine serum (FBS) (Sigma), penicillin (100 IU/mL) and streptomycin (50 µg/mL). Exponentially growing cells were maintained at 26 °C. Promastigote susceptibility testing was performed with the Uptiblue® micromethod previously described. Briefly, 100 µL of a […] promastigotes/mL suspension were placed into wells of a 96-well microplate (Nunc®). The cultures were exposed for 96 h at 26 °C to the antileishmanial drugs at the concentrations used above, except for meglumine antimoniate for which dilutions were 0.2, 2 and 20 mg·mL^-1. Four h before measurement, 10 µL of Uptiblue® were added. The fluorescence was measured at 590 nm with an excitation at 550 nm.

[4] = system: KB cells; test: Cytotoxicity towards KB cells; type: cell-based
Procedure: as §1, §2

[5] = design: method as in PMID 17109902; details: quaternary protoberberines, as expected; cited from earlier work
[6] = Plasmodium falciparum, FcB1 Colombia strain, read-out: Antimalarial IC50 Plasmodium falciparum FcB1 Colombia
[7] = Plasmodium falciparum, FCB1, read-out: Antimalarial IC50 Plasmodium falciparum FcB1 Colombia

| Molecule | IC50 [1, 6] | Cytotoxicity MCR-5 cells 10 µg/mL ([2]; human, 10 µg/mL) | IC50 ([3]; Leishmania major) | other results |
| --- | --- | --- | --- | --- |
| COc1cc2c(cc1OC)C(Cc1ccc(O)cc1)N(C)CC2 (single isomer, unassigned; (-)) [(-)-Armepavine 9, (-)-armepavine] | 3.6 µg/mL and 11.4 µM | 0 | – | – |
| COc1cc2c3c(c1OC)Oc1c(OC)c(OC)cc4c1C(Cc1ccc(O)c(c1)Oc1ccc(cc1)CC2N(C)CC3)NCC4 (single isomer, unassigned; (-)) [(-)-Northalfoetidine 5, (-)-northalfoetidine] | 2.8 µg/mL and 4.5 µM | 6 | 39 µg/mL and 63 µM | – |
| COc1ccc2cc1Oc1ccc(cc1)CC1c3cc(OC)c(OC)c(c3CCN1C)Oc1c(OC)c(OC)cc3c1C(C2)NCC3 (single isomer, unassigned; (-)) [(-)-Northalidasine 2, (-)-northalidasine] | 3.4 µg/mL and 5.2 µM | 0 | 27 µg/mL and 41 µM | – |
| COc1ccc2cc1Oc1ccc(cc1)CC1c3cc(OC)c(OC)c(c3CCN1C)Oc1c(O)c(OC)cc3c1C(C2)NCC3 (single isomer, unassigned; (-)) [(-)-Northalrugosidine 3, (-)-northalrugosidine] | 2.7 µg/mL and 4.3 µM | 77 | 30 µg/mL and 48 µM | Cytotoxicity MCR-5 cells 1 µg/mL ([2]; human, 1 µg/mL): 0 |
| COc1cc2c3c(c1OC)Oc1c(OC)c(OC)cc4c1C(Cc1ccc(O)c(c1)Oc1ccc(cc1)CC2N(C)CC3)N(C)CC4 (single isomer, unassigned; (-)) [(-)-Thalfoetidine 4, (-)-thalfoetidine] | 2.1 µg/mL and 3.3 µM | 62 | 17 µg/mL and 27 µM | Cytotoxicity MCR-5 cells 1 µg/mL ([2]; human, 1 µg/mL): 0 |
| COc1cc2c3c(c1O)Oc1c4c(cc(OC)c1OC)C(Cc1ccc(cc1)Oc1cc(ccc1O)CC3N(C)CC2)N(C)CC4 (single isomer, unassigned; (-)) [(-)-Thaligosidine 6, (-)-thaligosidine] | 1.2 µg/mL and 2 µM | 61 | 38 µg/mL and 61 µM | Cytotoxicity MCR-5 cells 1 µg/mL ([2]; human, 1 µg/mL): 0 |
| COc1cc2c(cc1OC)-c1c3c(c(OC)c4c1[C@H](C2)NCC4)OCO3 [(+)-O-Methylcassythine 7, (+)-O-methylcassythine] | 8.6 µM | 61 | – | Cytotoxicity KB cells 10 µg/mL [4]: 49; IC50 [1, 7]: 3.1 µg/mL; Cytotoxicity MCR-5 cells 1 µg/mL ([2]; human, 1 µg/mL): 4 |
| COc1cc2c(cc1OC)-c1c(O)c(OC)c(OC)c3c1[C@H](C2)N(C)CC3 [(+)-Preocoteine 1, (+)-preocoteine] | 1.3 µM | 20 | > 100 µg/mL and > 100 µM | Cytotoxicity KB cells 10 µg/mL [4]: 23; IC50 [1, 7]: 0.5 µg/mL |
| COc1ccc2cc3[n+](cc2c1OC)CCc1cc2c(cc1-3)OCO2 [Berberine 11, berberine] | 0.4 µg/mL and 900 nM | – | 13 µg/mL and 35 µM | Cytotoxicity (in words) [5]: cytotoxic |
| CCN(CC)CCCC(C)Nc1ccnc2cc(Cl)ccc12 (stereo not shown) [Chloroquine, reference compound] | – | – | – | IC50 [1, 7]: 0.06 µg/mL and 100 nM |
| N=C(N)c1ccc(OCCCCCOc2ccc(C(=N)N)cc2)cc1 [Pentamidine, reference compound] | – | – | 28 µg/mL and 82 µM | – |
| COc1cc2cc3[n+](cc2cc1OC)CCc1cc2c(cc1-3)OCO2 [Pseudoberberine 12, pseudoberberine] | 0.5 µg/mL and 1.3 µM | – | 3.5 µg/mL and 9 µM | Cytotoxicity (in words) [5]: cytotoxic |
| COc1cc(CCN(C)C)c2ccc3cc4c(c5c(=O)oc1c2c35)OCO4 [Thaliglucinone 10, thaliglucinone] | 6.7 µM | – | 63 µg/mL and 173 µM | IC50 [1, 7]: 2.4 µg/mL; Cytotoxicity MCR-5 cells 1 µg/mL ([2]; MCR-5 (MRC5) cells, compound at 1 µg/mL in DMSO): 21; Cytotoxicity MCR-5 cells 10 µg/mL ([2]; MCR-5 (MRC5) cells, compound at 10 µg/mL in DMSO): 79 |
| (+)-thalicberine [(+)-Thalicberine 8] | – | – | – | Cytotoxicity KB cells 10 µg/mL [4]: 43; Antimalarial IC50 Plasmodium falciparum FcB1 Colombia ([1]; FcB1 Colombia strain): 2.5 µg/mL; IC50 ([1]; FcB1 Colombia strain, read-out: Antimalarial IC50 Plasmodium falciparum FcB1 Colombia): 4.2 µM; IC50 [3]: 90 µM; Leishmanicidal IC50 Leishmania major [3]: 55 µg/mL; Cytotoxicity MCR-5 cells 10 µg/mL [2]: 29 |
